The text below walks through data of patent US8007526B2, “Difunctionalized aromatic compounds and polymers therefrom” (Bezwada Biomedical, LLC, priority 2005, dated 2011).

This data set can be described thus: In vitro hydrolysis in Aldrich buffer at 100° C., monitored by TLC for disappearance of starting material. The format is physicochemical. An excerpt:
In Vitro Hydrolysis of Functionalized Aromatics
A compound and a polymer of the present invention were examined for their rates of hydrolysis as described below.

Take `COC(=O)COC(=O)COc1ccc(C(=O)OCC(=O)OC)cc1` [Example 14, 4-Methoxycarbonylmethoxycarbonylmethoxy-benzoic acid methoxycarbonyl methyl ester]: the “Hydrolyzed in (time to hydrolysis)” value reads like this: (100 mg in 10 mL Aldrich pH 7.4 buffer) “Hydrolyzed in 26.5 hours”; (100 mg in 10 mL Aldrich pH 9 buffer, 1% solution) “Hydrolyzed in 5 hours”.
